Marks after values point to notes of the source that are not given here.
Key:
[1] = Apparent (surface) pKa of the LNP formulation (TNS assay); format: physicochemical; conditions: for App. pKa: Table 3F
In short: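 LNP (0.04 mg/mL mRNA) mixed with TNS reagent in 21 buffers spanning about pH 3-12, in triplicate; fluorescence plotted against pH as sigmoidal curve. Apparent pKa taken as […] curve inflection point; validated in 1× PBS and 20 mM Tris w/8% sucrose.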

[2] = Encapsulation efficiency of RNA (QUANT-IT RIBOGREEN RNA assay); format: physicochemical; conditions: for EE (%): Table 1A; for % EE: compositions for subcutaneous administration; for % Encapsulation: lipid nanoparticle, ±SD within one assay run (Table 37)
In short: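 RiboGreen fluorescence (ex ~480, em ~520 nm) compared between intact samples and Triton X-100-lysed samples after 15 min at 37 °C in TE buffer, pH 7.5. Percent free RNA is the blank-corrected intact/disrupted ratio.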

[3] = Residual lipid levels in rat liver and spleen (UPLC-MS); format: in vivo; conditions: for % Lipid Remaining in liver, 48 h: 2 mpk, assuming 300 g rat and 15 g liver
In short: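 Rats received a single intravenous dose of lipid nanoparticle composition, and liver tissue was later collected to quantify residual lipid. Weighed tissue was homogenized in Milli-Q water (900 μL per 100 mg tissue) using an Omni probe homogenizer. 50 μL aliquots were mixed with 400 μL spiking solution, vortexed, centrifuged, and analyzed by UPLC on a C8 column with positive-mode ESI detection on a Sciex API5500 mass spectrometer.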

[4] = test system: luciferase mRNA; assay: Luciferase expression after subcutaneous administration to mice; format: in vivo, female CD-1 mice; conditions: for Novel lipid/MC3 expression ratio, 6 hr. time point, s.c. Luc 0.05 mpk / Novel lipid/MC3 expression ratio, 6 hr. time point, s.c. Luc 0.5 mpk / Novel lipid/MC3 expression ratio, s.c. Luc 0.5 mpk (AUC): relative to MC3; for Novel lipid/MC3 expression ratio, 6 hr. time point, s.c. Luc 0.5 mpk / Novel lipid/MC3 expression ratio, s.c. Luc 0.5 mpk (AUC) / Lipid/MC3 AUC ratio / AUC (luciferase expression): 0.5 mpk; for Lipid/MC3 AUC ratio: luciferase; for AUC (luciferase expression): whole body BLI; for Novel lipid/MC3 ratio, s.c. Luc 6 hr.: relative to MC3, Table 3G
Protocol: The effect of the lipids of the disclosure on protein expression upon subcutaneous administration was studied. Formulations containing lipids of the disclosure and an mRNA expressing luciferase or hEPO were administered subcutaneously to female CD-1 mice at 0.5 mpk. Expression levels were obtained via whole body luminescent imaging (BLI) at 3, 6 and 24 hours after injection and expression levels in liver, spleen and at the injection site were evaluated ex vivo after 24 hours. […] See also Tables 35 and 36, and FIGS. 19 and 27.
Table 35 summarizes the luciferase expression levels using various nanoparticle compositions of the disclosure, and the luciferase expression levels using various nanoparticle compositions of the disclosure as compared to the luciferase expression level using an MC3 formulation after subcutaneous administration, as described above.

[5] = lipid nanoparticle, ±SD within one assay run (Table 37)

SMILES: CCCCCCCCCCCCCCN(CCO)CCCCCCCC(=O)OC(CCCCCCCC)CCCCCCCC [Compound 2, Heptadecan-9-yl 8-((2-hydroxyethyl)(tetradecyl)amino)octanoate]
- pKa ([1]; Table 1A): 6.73
- EE (%) [2]: 93.88%

SMILES: CCCCCCCCCN(CCO)CCCCCCCC(=O)OC(CCCCCCCC)CCCCCCCC [Compound 3, Heptadecan-9-yl 8-((2-hydroxyethyl)(nonyl)amino)octanoate]
- pKa ([1]; Table 1A): 6.72
- pKa ([1]; Table 6): 6.72
- EE (%) [2]: 92.25%
- % Lipid Remaining in liver, 48 h ([3]; rats, 48 h): 14%
- % remaining dose in liver, 48 h ([3]; rats, intravenous, 2.0 mpk, 48 h): 14.2%

SMILES: CCCCCCCCC(CCCCCCCC)OC(=O)CCCCCCCN(CCO)CCCCCC [Compound 5, Heptadecan-9-yl 8-(hexyl(2-hydroxyethyl)amino)octanoate]
- pKa ([1]; Table 1A): 6.84
- EE (%) [2]: 77.07%

SMILES: CCCCCCCCCN(CCCO)CCCCCCCC(=O)OC(CCCCCCCC)CCCCCCCC [Compound 7, Heptadecan-9-yl 8-((3-hydroxypropyl)(nonyl)amino)octanoate]
- pKa ([1]; Table 1A): 6.75
- App. pKa [1]: 6.74
- Novel lipid/MC3 expression ratio, 6 hr. time point, s.c. Luc 0.05 mpk [4]: 2.40
- Novel lipid/MC3 expression ratio, 6 hr. time point, s.c. Luc 0.5 mpk [4]: 2.29
- EE (%) [2]: 86.10%

SMILES: CCCCCCCCCOC(=O)CCCCCCCN(CCCCCCCC(=O)OC(CCCCCCCC)CCCCCCCC)C[C@H](C)O [Compound 12, Heptadecan-9-yl (S)-8-((2-hydroxypropyl)(8-(nonyloxy)-8-oxooctyl)amino)octanoate]
- pKa ([1]; Table 1A): 5.99
- EE (%) [2]: 92.44%

SMILES: CCCCCCCCCOC(=O)CCCCCCCN(CCCO)CCCCCCCC(=O)OC(CCCCCCCC)CCCCCCCC [Compound 19, Heptadecan-9-yl 8-((3-hydroxypropyl)(8-(nonyloxy)-8-oxooctyl)amino) octanoate]
- pKa ([1]; Table 1A): 6.78
- Novel lipid/MC3 expression ratio, 6 hr. time point, s.c. Luc 0.5 mpk [4]: 2.13
- EE (%) [2]: 97.21%
- % EE ([2]; Table 1E): 93%

SMILES: CCCCCCCCCOC(=O)CCCCCCCN(CCCCO)CCCCCCCC(=O)OC(CCCCCCCC)CCCCCCCC [Compound 20, Heptadecan-9-yl 8-((4-hydroxybutyl)(8-(nonyloxy)-8-oxooctyl)amino) octanoate]
- pKa ([1]; Table 1A): 6.87
- pKa ([1]; Table 6): 6.87
- Novel lipid/MC3 expression ratio, s.c. Luc 0.5 mpk (AUC) [4]: (AUC: 4.02)
- Lipid/MC3 AUC ratio [4]: 4.02
- AUC (luciferase expression) [4]: 6.8926E+10 (p/s) * h
- Novel lipid/MC3 ratio, s.c. Luc 6 hr. [4]: 4.00
- EE (%) [2]: 96.72%
- % EE ([2]; Table 1C): 91.6%

SMILES: CCCCCCCCCOC(=O)CCCCCCCN(CCO)CCCCCCCCCC(=O)OC(CCCCCCCC)CCCCCCCC [Compound 23, Heptadecan-9-yl 10-((2-hydroxyethyl)(8-(nonyloxy)-8-oxooctyl)amino) decanoate]
- pKa ([1]; Table 1A): 6.84
- App. pKa [1]: 6.88
- Novel lipid/MC3 expression ratio, 6 hr. time point, s.c. Luc 0.5 mpk [4]: 1.02
- EE (%) [2]: 92.68%
- % EE ([2]; Table 1E): 98%

SMILES: CCCCCCCCCOC(=O)CCCN(CCO)CCCCCCCC(=O)OC(CCCCCCCC)CCCCCCCC [Compound 26, Heptadecan-9-yl 8-((2-hydroxyethyl)(4-(nonyloxy)-4-oxobutyl)amino) octanoate]
- pKa ([1]; Table 1A): 6.64
- pKa ([1]; Table 6): 6.64
- pKa [1, 5]: 6.64 ± 0.14
- EE (%) [2]: 97.43%
- % Encapsulation [2]: 97.4 ± 0.2%
- EE ([2]; nanoparticle composition with hEPO mRNA (Table 30)): 95.60%
- % dose remaining Rat liver tissue, 48 h ([3]; Sprague Dawley rat liver 48 h after 2 mg/kg bolus dose mRNA): 20 ± 4.0^f %
- parent amino lipid levels in the liver ([3]; Sprague Dawley rats, 48 h post dose): 20%
- % lipid remaining in liver after 48 hours ([3]; liver, 48 hours): 20%
- % Lipid Remaining in liver, 48 h ([3]; rats, 48 h): 20%
- lipid levels in the liver after 48 hours ([3]; rats, i.v., dose response study): about 19%

SMILES: CCCCCCCCCOC(=O)CCCCCCCN(CCO)CCCCCC(=O)OC(CCCCCCCC)CCCCCCCC [Compound 27, Nonyl 8-((6-(heptadecan-9-yloxy)-6-oxohexyl)(2-hydroxyethyl)amino) octanoate]
- pKa ([1]; Table 1A): 6.78
- Novel lipid/MC3 expression ratio, 6 hr. time point, s.c. Luc 0.05 mpk [4]: 14.45
- EE (%) [2]: 94.27%

SMILES: CCCCCCCCC(CCCCCCCC)OC(=O)CCCCCCCN(CCO)CCCCCCCC(=O)OCC1CC1CCCCCC (stereo not drawn) [Compound 28, Heptadecan-9-yl 8-((8-((2-hexylcyclopropyl)methoxy)-8-oxooctyl)(2-hydroxyethyl)amino)octanoate]
- pKa ([1]; Table 1A): 6.04
- EE (%) [2]: 97.03%

SMILES: CCCC/C=C\CCC(CC/C=C\CCCC)OC(=O)CCCCCCCN(CCO)CCCCCC(=O)OCCCCCCCCCCC [Compound 61, (5Z,12Z)-heptadeca-5,12-dien-9-yl 8-((2-hydroxyethyl)(6-oxo-6-(undecyloxy)hexyl)amino)octanoate]
- pKa ([1]; Table 1A): 6.70
- Novel lipid/MC3 expression ratio, 6 hr. time point, s.c. Luc 0.5 mpk [4]: 0.70
- EE (%) [2]: 97.40%
- % EE ([2]; Table 1E): 96%

SMILES: CCCCCCCCC(CC)OC(=O)CCCN(CCO)CCCCCCCC(=O)OC(CCCCCCCC)CCCCCCCC (stereo not drawn) [Compound 72, Heptadecan-9-yl 8-((2-hydroxyethyl)(4-oxo-4-(undecan-3-yloxy)butyl)amino)octanoate]
- pKa ([1]; Table 1A): 6.29
- Novel lipid/MC3 expression ratio, s.c. Luc 0.5 mpk (AUC) [4]: (AUC: 2.01)
- Lipid/MC3 AUC ratio [4]: 2.01
- AUC (luciferase expression) [4]: 3.4417E+10 (p/s) * h
- Novel lipid/MC3 ratio, s.c. Luc 6 hr. [4]: 2.18
- EE (%) [2]: 94.69%
- % EE ([2]; Table 1C): 94.9%

SMILES: CCCCCCCCC(CC)OC(=O)CCCCCN(CCO)CCCCCCCC(=O)OC(CCCCCCCC)CCCCCCCC (stereo not drawn) [Compound 75, Heptadecan-9-yl 8-((2-hydroxyethyl)(6-oxo-6-(undecan-3-yloxy)hexyl)amino)octanoate]
- pKa ([1]; Table 1A): 6.67
- Novel lipid/MC3 expression ratio, s.c. Luc 0.5 mpk (AUC) [4]: (AUC: 3.05)
- Lipid/MC3 AUC ratio [4]: 3.05
- AUC (luciferase expression) [4]: 5.2262E+10 (p/s) * h
- Novel lipid/MC3 ratio, s.c. Luc 6 hr. [4]: 3.08
- EE (%) [2]: 92.3%
- % EE ([2]; Table 1C): 94.9%

SMILES: CCCCCCCCCOC(=O)CCCCCCCN(CCCCCCCC(=O)OC(CCCCCCCC)CCCCCCCC)CCCNC(=S)NC [Compound 113, Heptadecan-9-yl 8-((3-(3-methylthioureido)propyl)(8-(nonyloxy)-8-oxooctyl)amino)octanoate]
- pKa ([1]; Table 1A): 6.93
- Novel lipid/MC3 expression ratio, s.c. Luc 0.5 mpk (AUC) [4]: (AUC: 4.30)
- Lipid/MC3 AUC ratio [4]: 4.30
- AUC (luciferase expression) [4]: 7.3721E+10 (p/s) * h
- Novel lipid/MC3 ratio, s.c. Luc 6 hr. [4]: 4.53
- EE (%) [2]: 96.92%
- % EE ([2]; Table 1C): 99.6%

SMILES: CCCCCCCCC(CCCCCCCC)OC(=O)CCCCCCCN(CCO)CCCCCC(=O)OC(CCCCCCCC)C1CC1 (stereo not drawn) [Compound 128, Heptadecan-9-yl 8-((6-((1-cyclopropylnonyl)oxy)-6-oxohexyl)(2-hydroxyethyl)amino)octanoate]
- pKa ([1]; Table 1A): 6.56
- Novel lipid/MC3 expression ratio, 6 hr. time point, s.c. Luc 0.5 mpk [4]: 0.47
- EE (%) [2]: 92.45%
- % EE ([2]; Table 1E): 94%

SMILES: CCCCCCCCCOC(=O)CCCCCCCN(CCO)CCCCCCCC(=O)OCCCCCCCCC [Compound 138, Dinonyl 8,8′-((2-hydroxyethyl)azanediyl)dioctanoate]
- surface pKa ([1]; LNP, Example 26): > 7
- pKa ([1]; Table 1A): 7.39
- pKa [1, 5]: 7.39 ± 0.07
- EE (%) [2]: 91.8%
- % Encapsulation [2]: 91.8 ± 0.9%

SMILES: CCCCCCCCCOC(=O)CCCCCCCN(CCO)CCCCCCC(=O)OCC(CCCCCCCC)CCCCCCCC [Compound 143, Nonyl 8-((2-hydroxyethyl)(7-((2-octyldecyl)oxy)-7-oxoheptyl)amino)octanoate]
- pKa ([1]; Table 1A): 6.47
- EE (%) [2]: 97.37%

SMILES: CCCCCCCCCOC(=O)CCCCCCCN(CCO)CCCCCCCC(=O)N(CCCCCCCC)CCCCCCCC [Compound 144, Nonyl 8-((8-(dioctylamino)-8-oxooctyl)(2-hydroxyethyl)amino)octanoate]
- pKa ([1]; Table 1A): 7.09
- EE (%) [2]: 90.3%

Reference: patent US12263248B2, “Compounds and compositions for intracellular delivery of therapeutic agents” (ModernaTX, Inc., priority 2018, dated 2025)
